Measurements as given in patent publication US4575508A, “2-Substituted 1-(3'-aminoalkyl)-1,2,3,4-tetrahydro-β-carbolines, and their use as antiarrhythmic agents” (BASF Aktiengesellschaft, priority 1982, dated 1986).
Read-outs that look alike come from different tables or passages of the source.

How the values were obtained:
Type in all cases: in vivo, male Sprague-Dawley rats
rat = assay: Toxicity: dose at which first cardiotoxic or neurotoxic symptoms occur, rat, oral administration
Procedure: (§1) To investigate the antiarrhythmic activity, the substances were administered orally to male Sprague-Dawley rats each weighing 200-250 g. 45 minutes later, the animals were anesthetized with sodium thiobutabarbital (100 mg/kg, administered intraperitoneally). Aconitine was used as the arrhythmogenic substance, and was infused intravenously 60 minutes after administration of the substance (dosage rate: 0.005 mg per kg per min.). […] The onset of these arrhythmias could be delayed by means of antiarrhythmics, the delay achieved being dose-dependent.
(§2) For further characterization of the substances, the dose at which the first cardiotoxic symptoms (changes in the initial ECG) or neurotoxic symptoms (coordination disturbances, convulsions, etc.) occurred was determined from the decimal-geometric dosage progression (factor .cuberoot.10) used in the experiments.

[1] = as above; details: in vivo
Procedure: as §1, §2

[2] = test system: aconitine-induced arrhythmia; assay: Aconitine-induced arrhythmia in rats, oral administration (antiarrhythmic activity); details: for ED50: Rattus norvegicus, po, 1 h, read-out: Aconitine-induced arrhythmia ED 50% (dose which prolongs the aconitine infusion duration by 50%); for times more effective than quinidine on aconitine-induced arrhythmia / R.A. (relative activity, based on quinidine = 1.00): rat, oral; for R.A. (relative activity, based on quinidine = 1.00): aconitine-induced arrhythmia; for antiarrhythmic action (in words): general statement
Procedure: as §1
Linear relationships exist between the logarithms of the doses (mg/kg) of the test substances and the relative prolongation of the aconitine infusion duration (Δ%), from which relationships the dose which prolongs the infusion duration by 50% can be determined, as the ED 50%.
The known antiarrhythmic quinidine was used as a comparative substance.

Compound | Toxicity Dose (dose after the application of which the first toxic symptoms are observed) (rat; in vivo, po) [mg/kg] | selectivity ratio ([1]; po) | ED50 [2] [mg/kg] | times more effective than quinidine on aconitine-induced arrhythmia [2] [times] | R.A. (relative activity, based on quinidine = 1.00) [2] | antiarrhythmic action (in words) [2] | Toxicity Dose (dose after the application of which the first toxic symptoms are observed) (rat; oral, cardiotoxic or neurotoxic symptoms) [mg/kg] | selectivity ratio ([1]; oral, measure of the therapeutic index, read-out: Toxicity Q (quotient of the toxic dose and the antiarrhythmically effective dose, ED 50%))
CC(=O)N1CCc2c([nH]c3ccccc23)C1CCCN(C)C (stereo not drawn) [Example 4, 1-(3'-Dimethylaminopropyl)-2-acetyl-1,2,3,4-tetrahydro-β-carboline] | 215 | 16 | 13.5 | 3 | 3.22 | – | – | –
CC(=O)N1CCc2c([nH]c3ccccc23)C1CCCN1CCN(C)CC1 (stereo not drawn) [Example 21, 1-[3'-(4-Methylpiperazin-1-yl)-propyl]-2-acetyl-1,2,3,4-tetrahydro-β-carboline] | 215 | 15 | 14.6 | 3 | 2.98 | – | – | –
CCCCNCCCC1c2[nH]c3ccccc3c2CCN1C(C)=O (stereo not drawn) [Example 28, 1-(3'-n-Butylaminopropyl)-2-acetyl-1,2,3,4-tetrahydro-β-carboline] | 215 | 17 | 12.4 | – | 3.51 | – | – | –
CCCCN(CCCC)CCCC1c2[nH]c3ccccc3c2CCN1C(C)=O (stereo not drawn) [Example 31, 1-[3'-(Di-n-butyl)-aminopropyl]-2-acetyl-1,2,3,4-tetrahydro-β-carboline] | 21.5 | 13 | 1.71 | – | 25.44 | – | – | –
CCC(C)N(CCCC1c2[nH]c3ccccc3c2CCN1C(C)=O)C(C)CC (stereo not drawn) [Example 33, 1-[3'-(Di-2-butyl)-aminopropyl]-2-acetyl-1,2,3,4-tetrahydro-β-carboline] | 21.5 | 14 | 1.57 | – | 27.71 | – | – | –
CCCN(CCC)CCCC1c2c(c3ccccc3n2C)CCN1C(C)=O (stereo not drawn) [Example 42, 1-(3'-Dipropylaminopropyl)-2-acetyl-9-methyl-1,2,3,4-tetrahydro-β-carboline] | 10 | 12 | 0.842 | – | 51.66 | particularly active | – | –
CC(=O)N1CCc2c(n(C)c3ccccc23)C1CCCN(CC(C)C)CC(C)C (stereo not drawn) [Example 43, 1-[3'-(Di-2-methylpropyl)-aminopropyl]-2-acetyl-9-methyl-1,2,3,4-tetrahydro-β-carboline] | 10 | 13 | 0.803 | – | 54.17 | particularly active | – | –
CCn1c2c(c3ccccc31)CCN(C(C)=O)C2CCCN1CCN(C)CC1 (stereo not drawn) [Example 44, 1-[3'-(4-Methylpiperazin-1-yl)-propyl]-2-acetyl-9-ethyl-1,2,3,4-tetrahydro-β-carboline] | 215 | 23 | 9.21 | – | 4.72 | – | – | –
CCCN(CCCC1c2c(c3ccccc3n2C)CCN1C(C)=O)C(C)C (stereo not drawn) [Example 46, 1-[3'-(Isopropylpropyl)-aminopropyl]-2-acetyl-9-methyl-1,2,3,4-tetrahydro-β-carboline] | – | – | 0.732 | 59 | 59.43 | – | 4.64 | 14
C=C[C@H]1C[N@@]2CC[C@H]1C[C@@H]2[C@@H](O)c1ccnc2ccc(OC)cc12 [quinidine, reference compound] | – | – | 43.5 | – | – | – | – | –
